In patent US20100306877A1, “FLAVONOID GLUCOSYLTRANSFERASE AND USE OF SAME” (International Flower Development Proprietary Limited, priority 2006, published 2010) one finds substrate preference data, which are given here for two molecules.

In the assay the test system is protein encoded by cDNA contained in pSPB1123 (flavonol 3GT). Description: Glucosyltransferase activity of the protein encoded by pSPB1123 cDNA expressed in yeast, product measured by HPLC. Format: biochemical, rose. As to conditions: flavonol substrates compared. The source says: In order to analyze the activity of a protein encoded by cDNA contained in pSPB1123, this cDNA was expressed in yeast cells. Yeast expression vector pYE22m (Plant Cell Physiol. (1996) 37, 711-716) was used to express the cDNA in yeast. A fragment obtained by digested pSPB1123 cDNA with EcoRI and KpnI was inserted into an EcoRI and KpnI recognition sequence of pYE22m to obtain a yeast expression vector. This vector was then inserted into yeast strain G1315 followed by measurement of activity of the protein encoded by pSPB1123 according to the method described on pp. 114-118 of Shinseibutsugaku Jikken (New Biological Experiment) Manual 3 (Kagaku-Dojin Publishing Co., Inc.). The method for measuring activity and the conditions for measuring a product by HPLC were the same as the method and the like described in Plant Physiology (2003) 132, 1652-1663. Furthermore, anthocyanin (cyanidin, pelargonidin), cyanidin 3-glucoside (cyanidin 3G), cyanidin 3,5-diglucoside (cyanidin 3,5G), flavonol (quercetin, kaempferol) and flavone (apigenin, luteolin) were used as substrates for measurement of the activity.

As to `O=c1c(O)c(-c2ccc(O)cc2)oc2cc(O)cc(O)c12` [kaempferol], the substrate preference entry is “prefer quercetin to kaempferol”.
In the case of `O=c1c(O)c(-c2ccc(O)c(O)c2)oc2cc(O)cc(O)c12` [quercetin] it was “prefer quercetin to kaempferol”.
